Data published in US20080132510A1, “Imidazolylmethyl and Pyrazolylmethyl Heteroaryl Derivatives” (priority 2005, published 2008).

Target: benzodiazepine site of the GABAA receptor
Assay: Ligand binding assay (3H-Ro15-1788 displacement, purified rat cortical membranes)
Conditions: previously determined; used in the Cheng-Prusoff equation; read-out: binding dissociation constant (Kd) of the radioligand

With `CCOC(=O)c1ncn2c1CN(C)C(=O)c1cc(F)ccc1-2` [^3H—R15-1788] the Kd was 1 nM.
